# What was measured:
# [1] = target: Voltage-gated inwardly rectifying potassium channel KCNH2 (Homo sapiens, UniProt Q12809); assay type: functional; details: read-out: AC50
# Adenosine receptor A2a = Adenosine receptor A2a (Homo sapiens, UniProt P29274)
# [2] = target: T1, Prostaglandin G/H synthase 1 (Rattus norvegicus, UniProt Q63921); assay type: functional
# T1 sequence (Q63921 whole entry): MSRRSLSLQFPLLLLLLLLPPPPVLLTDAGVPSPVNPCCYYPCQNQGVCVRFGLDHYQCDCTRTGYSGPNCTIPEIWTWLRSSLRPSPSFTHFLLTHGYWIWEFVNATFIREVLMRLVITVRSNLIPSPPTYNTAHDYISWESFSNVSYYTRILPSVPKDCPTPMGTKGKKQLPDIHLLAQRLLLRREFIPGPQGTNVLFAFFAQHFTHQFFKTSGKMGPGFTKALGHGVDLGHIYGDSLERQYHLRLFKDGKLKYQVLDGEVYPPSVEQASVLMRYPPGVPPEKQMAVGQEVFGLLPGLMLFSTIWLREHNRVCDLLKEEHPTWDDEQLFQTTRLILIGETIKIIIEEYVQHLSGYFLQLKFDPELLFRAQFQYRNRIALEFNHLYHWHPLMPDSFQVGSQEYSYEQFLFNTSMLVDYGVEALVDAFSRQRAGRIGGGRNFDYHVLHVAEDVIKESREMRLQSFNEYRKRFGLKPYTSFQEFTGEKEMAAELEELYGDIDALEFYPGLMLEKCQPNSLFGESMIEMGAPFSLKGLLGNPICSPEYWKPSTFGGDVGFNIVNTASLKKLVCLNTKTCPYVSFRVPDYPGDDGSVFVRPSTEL
# D(1A) dopamine receptor = D(1A) dopamine receptor (Homo sapiens, UniProt P21728); assay type: functional, cell-based
# [3] = target: Glutamate receptor ionotropic, NMDA 1 (Rattus norvegicus, UniProt P35439)
# Melanocortin receptor 3 = Melanocortin receptor 3 (Homo sapiens, UniProt P41968)
# [4] = target: T2, 5-hydroxytryptamine receptor 2C (Homo sapiens, UniProt P28335)
# T2 sequence (P28335 whole entry): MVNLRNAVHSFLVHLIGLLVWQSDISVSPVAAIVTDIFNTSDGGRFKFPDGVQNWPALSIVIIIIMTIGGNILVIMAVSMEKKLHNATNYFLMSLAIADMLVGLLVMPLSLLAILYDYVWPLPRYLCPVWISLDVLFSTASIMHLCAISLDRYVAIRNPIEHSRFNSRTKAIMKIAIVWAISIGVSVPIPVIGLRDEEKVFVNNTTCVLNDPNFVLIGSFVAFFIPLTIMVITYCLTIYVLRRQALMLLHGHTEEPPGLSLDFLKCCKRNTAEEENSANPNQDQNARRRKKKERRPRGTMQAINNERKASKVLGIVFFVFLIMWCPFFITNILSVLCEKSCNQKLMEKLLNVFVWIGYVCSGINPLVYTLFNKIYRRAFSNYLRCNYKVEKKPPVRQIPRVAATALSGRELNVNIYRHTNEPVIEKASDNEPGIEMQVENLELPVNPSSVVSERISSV
# Adenosine receptor A3 = target: T3, Adenosine receptor A3 (Homo sapiens, UniProt P0DMS8)
# T3 sequence (P0DMS8 whole entry): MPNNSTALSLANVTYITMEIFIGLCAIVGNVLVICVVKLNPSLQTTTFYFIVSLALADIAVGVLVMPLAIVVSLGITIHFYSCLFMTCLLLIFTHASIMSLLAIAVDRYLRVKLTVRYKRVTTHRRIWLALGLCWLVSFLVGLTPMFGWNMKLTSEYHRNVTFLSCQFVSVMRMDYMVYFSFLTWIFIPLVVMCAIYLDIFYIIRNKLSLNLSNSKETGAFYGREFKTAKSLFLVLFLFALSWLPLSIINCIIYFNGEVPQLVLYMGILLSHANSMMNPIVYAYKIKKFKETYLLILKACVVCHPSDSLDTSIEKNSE
# Adenosine receptor A1 = target: T4, Adenosine receptor A1 (Homo sapiens, UniProt P30542)
# T4 sequence (P30542 whole entry): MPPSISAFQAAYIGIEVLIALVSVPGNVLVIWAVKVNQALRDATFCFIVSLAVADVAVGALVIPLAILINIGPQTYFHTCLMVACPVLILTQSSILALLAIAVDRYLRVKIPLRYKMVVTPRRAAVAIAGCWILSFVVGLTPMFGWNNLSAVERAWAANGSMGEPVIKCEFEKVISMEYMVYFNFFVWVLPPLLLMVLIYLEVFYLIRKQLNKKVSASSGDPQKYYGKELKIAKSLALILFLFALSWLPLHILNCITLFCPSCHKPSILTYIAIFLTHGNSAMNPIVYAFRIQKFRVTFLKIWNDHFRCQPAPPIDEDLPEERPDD
# [5] = target: Gamma-aminobutyric acid receptor subunit alpha-1 (Rattus norvegicus, UniProt P62813); assay type: functional
# Vasopressin V1a receptor = Vasopressin V1a receptor (Homo sapiens, UniProt P37288)
# Also: assay procedure not described here.
# Sequence of D(1A) dopamine receptor (P21728 whole entry): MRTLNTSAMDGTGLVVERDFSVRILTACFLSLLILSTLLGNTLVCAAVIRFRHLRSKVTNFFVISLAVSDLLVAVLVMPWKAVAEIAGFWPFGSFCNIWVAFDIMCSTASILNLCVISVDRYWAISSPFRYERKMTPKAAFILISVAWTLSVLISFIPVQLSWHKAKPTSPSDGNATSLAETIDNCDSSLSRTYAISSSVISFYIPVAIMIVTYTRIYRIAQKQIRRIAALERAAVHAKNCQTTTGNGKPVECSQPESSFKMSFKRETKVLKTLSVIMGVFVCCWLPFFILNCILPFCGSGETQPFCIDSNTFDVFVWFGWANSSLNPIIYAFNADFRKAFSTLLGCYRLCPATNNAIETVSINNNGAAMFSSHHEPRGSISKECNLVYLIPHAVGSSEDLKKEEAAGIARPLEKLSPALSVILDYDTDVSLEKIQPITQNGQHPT
# Sequence of Adenosine receptor A2a (P29274 whole entry): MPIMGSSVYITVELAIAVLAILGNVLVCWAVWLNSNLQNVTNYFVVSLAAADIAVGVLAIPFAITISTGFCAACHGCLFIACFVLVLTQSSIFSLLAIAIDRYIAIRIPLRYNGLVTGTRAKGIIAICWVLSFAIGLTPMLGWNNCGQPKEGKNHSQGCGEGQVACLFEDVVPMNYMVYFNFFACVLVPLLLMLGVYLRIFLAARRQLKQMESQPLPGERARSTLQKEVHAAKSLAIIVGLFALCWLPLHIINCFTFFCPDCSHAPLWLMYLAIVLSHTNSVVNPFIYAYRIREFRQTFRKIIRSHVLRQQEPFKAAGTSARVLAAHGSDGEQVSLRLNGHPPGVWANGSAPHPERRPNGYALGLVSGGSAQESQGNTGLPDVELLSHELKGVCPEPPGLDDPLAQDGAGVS
# Sequence of Melanocortin receptor 3 (P41968 whole entry): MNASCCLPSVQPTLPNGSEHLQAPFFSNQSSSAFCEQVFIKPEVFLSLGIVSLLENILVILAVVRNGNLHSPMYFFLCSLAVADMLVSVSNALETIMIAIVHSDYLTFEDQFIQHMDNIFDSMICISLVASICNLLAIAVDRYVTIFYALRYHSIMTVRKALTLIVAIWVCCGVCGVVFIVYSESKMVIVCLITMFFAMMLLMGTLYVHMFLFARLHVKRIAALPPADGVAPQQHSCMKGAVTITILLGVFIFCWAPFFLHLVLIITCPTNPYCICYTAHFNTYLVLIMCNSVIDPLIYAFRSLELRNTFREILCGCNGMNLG
# Sequence of Vasopressin V1a receptor (P37288 whole entry): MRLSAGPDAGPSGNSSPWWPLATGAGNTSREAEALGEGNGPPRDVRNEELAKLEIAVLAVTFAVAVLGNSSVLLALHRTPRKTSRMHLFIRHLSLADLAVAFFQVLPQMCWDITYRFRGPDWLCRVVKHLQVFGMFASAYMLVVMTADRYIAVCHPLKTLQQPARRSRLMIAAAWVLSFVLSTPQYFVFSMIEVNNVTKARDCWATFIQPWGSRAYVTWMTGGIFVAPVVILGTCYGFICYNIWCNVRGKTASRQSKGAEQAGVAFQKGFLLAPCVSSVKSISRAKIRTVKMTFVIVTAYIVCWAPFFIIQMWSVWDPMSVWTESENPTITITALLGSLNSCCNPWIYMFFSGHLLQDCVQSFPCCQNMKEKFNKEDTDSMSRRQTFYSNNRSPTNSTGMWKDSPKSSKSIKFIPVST
# Sequence of Voltage-gated inwardly rectifying potassium channel KCNH2 (Q12809 whole entry): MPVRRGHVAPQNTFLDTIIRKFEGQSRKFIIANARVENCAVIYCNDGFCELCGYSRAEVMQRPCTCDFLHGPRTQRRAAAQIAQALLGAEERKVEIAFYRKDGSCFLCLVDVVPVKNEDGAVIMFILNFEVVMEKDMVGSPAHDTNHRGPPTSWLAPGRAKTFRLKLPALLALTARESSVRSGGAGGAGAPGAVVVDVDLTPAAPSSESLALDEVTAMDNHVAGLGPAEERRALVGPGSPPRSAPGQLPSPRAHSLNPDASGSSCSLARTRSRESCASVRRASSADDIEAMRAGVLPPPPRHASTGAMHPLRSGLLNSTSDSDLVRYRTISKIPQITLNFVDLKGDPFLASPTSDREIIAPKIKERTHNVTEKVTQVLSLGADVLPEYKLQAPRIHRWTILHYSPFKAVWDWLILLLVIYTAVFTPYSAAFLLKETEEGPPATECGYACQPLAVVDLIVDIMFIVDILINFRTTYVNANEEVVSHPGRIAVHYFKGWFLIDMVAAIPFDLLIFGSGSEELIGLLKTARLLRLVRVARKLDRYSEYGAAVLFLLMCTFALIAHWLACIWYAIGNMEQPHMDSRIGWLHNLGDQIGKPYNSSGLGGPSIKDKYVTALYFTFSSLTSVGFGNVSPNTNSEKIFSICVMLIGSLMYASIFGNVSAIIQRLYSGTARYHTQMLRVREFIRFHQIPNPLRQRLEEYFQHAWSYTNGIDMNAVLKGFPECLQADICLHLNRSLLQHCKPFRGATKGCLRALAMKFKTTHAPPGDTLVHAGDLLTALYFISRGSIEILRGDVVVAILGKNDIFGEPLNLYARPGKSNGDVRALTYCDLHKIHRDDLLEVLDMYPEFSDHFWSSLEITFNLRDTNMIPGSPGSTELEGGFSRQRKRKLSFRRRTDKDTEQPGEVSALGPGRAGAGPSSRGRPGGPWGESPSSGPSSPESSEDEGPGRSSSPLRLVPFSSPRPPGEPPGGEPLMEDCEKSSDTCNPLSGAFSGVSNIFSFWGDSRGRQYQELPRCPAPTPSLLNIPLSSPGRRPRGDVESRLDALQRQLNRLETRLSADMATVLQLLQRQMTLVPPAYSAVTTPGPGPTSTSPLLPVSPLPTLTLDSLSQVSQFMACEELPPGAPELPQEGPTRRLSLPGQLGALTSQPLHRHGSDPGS
# Sequence of Gamma-aminobutyric acid receptor subunit alpha-1 (P62813 whole entry): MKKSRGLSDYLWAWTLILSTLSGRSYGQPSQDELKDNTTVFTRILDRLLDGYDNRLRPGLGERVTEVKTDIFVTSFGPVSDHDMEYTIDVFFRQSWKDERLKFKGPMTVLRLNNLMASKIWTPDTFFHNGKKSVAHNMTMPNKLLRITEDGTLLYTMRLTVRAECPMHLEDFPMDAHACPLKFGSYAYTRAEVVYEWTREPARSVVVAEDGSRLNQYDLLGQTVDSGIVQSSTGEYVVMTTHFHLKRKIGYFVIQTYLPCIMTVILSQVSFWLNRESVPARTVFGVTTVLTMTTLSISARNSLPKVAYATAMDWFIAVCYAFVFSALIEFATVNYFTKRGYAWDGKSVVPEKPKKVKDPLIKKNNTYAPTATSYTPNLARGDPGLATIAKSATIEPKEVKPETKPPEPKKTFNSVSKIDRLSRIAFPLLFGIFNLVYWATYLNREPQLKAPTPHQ
Structure (SMILES),AC50 (Adenosine receptor A2a) [µM],AC50 [2] [µM],AC50 [3] [µM],AC50 (Melanocortin receptor 3) [µM],AC50 [4] [µM],AC50 (Adenosine receptor A3) [µM],AC50 (Adenosine receptor A1) [µM],AC50 [5] [µM],AC50 (Vasopressin V1a receptor) [µM],AC50 [1] [µM],AC50 (D(1A) dopamine receptor) [µM]
Cn1nnc2c(C(N)=O)ncn2c1=O [TEMOZOLOMIDE],> 30,> 30,> 10,> 30,> 30,> 30,> 30,> 30,> 30,> 30,> 30
CN1C(=O)CCS(=O)(=O)C1c1ccc(Cl)cc1 (stereo not given) [CHLORMEZANONE],> 10,> 10,> 10,> 10,> 30,> 10,> 10,> 10,> 10,> 30,> 10
Cc1ccc(-c2cc(C(F)(F)F)nn2-c2ccc(S(N)(=O)=O)cc2)cc1 [CELECOXIB],> 10,–,> 10,> 10,> 30,9.14,> 10,> 10,> 30,–,> 10
CS(=O)(=O)c1ccc(C2=C(c3ccccc3)C(=O)OC2)cc1 [ROFECOXIB],> 30,–,> 10,> 30,> 30,> 30,> 30,4.7,> 10,> 30,> 10
O=C(OCC(O)CO)c1ccccc1Nc1ccnc2cc(Cl)ccc12 (stereo not given) [GLAFENINE],23,> 30,–,> 30,> 30,7.2,> 30,0.046,> 30,1.4,> 30
COCCCN1CCC(NC(=O)c2cc(Cl)c(N)c3c2OCC3)CC1 [PRUCALOPRIDE],> 30,> 30,–,> 30,> 30,> 30,> 30,> 30,> 30,> 30,> 30
COc1cc2nc(N(C)CCCNC(=O)C3CCCO3)nc(N)c2cc1OC (stereo not given) [ALFUZOSIN],> 30,> 30,> 30,> 30,> 30,> 30,> 30,> 30,> 30,–,> 30

# Now from value to compound, other results behind:
AC50 (Adenosine receptor A2a) [µM],AC50 [2] [µM],AC50 [3] [µM],AC50 (Melanocortin receptor 3) [µM],AC50 [4] [µM],AC50 (Adenosine receptor A3) [µM],AC50 (Adenosine receptor A1) [µM],AC50 [5] [µM],AC50 (Vasopressin V1a receptor) [µM],Structure (SMILES),AC50 [1] [µM],AC50 (D(1A) dopamine receptor) [µM]
> 30,> 30,> 30,> 30,> 30,> 30,> 30,> 30,> 30,Cc1nc([N+](=O)[O-])cn1-c1ccc([N+](=O)[O-])cc1 [NITREFAZOLE],> 30,> 30
> 30,> 30,> 10,> 30,> 30,> 30,> 30,> 10,> 10,CC1=C(C(=O)O)N2C(=O)[C@@H](NC(=O)[C@H](N)c3ccccc3)[C@H]2SC1 [CEPHALEXIN ANHYDROUS],–,–
> 30,> 30,> 10,> 30,–,> 30,> 30,> 30,> 30,CCCN1C[C@H](CSC)C[C@@H]2c3cccc4[nH]cc(c34)C[C@H]21 [PERGOLIDE],0.22,–
> 30,> 30,> 30,> 30,> 30,> 30,> 30,> 30,> 30,COc1ccccc1OCC(O)CN1CCN(CC(=O)Nc2c(C)cccc2C)CC1 (stereo not given) [RANOLAZINE],–,> 30
> 30,> 30,> 10,> 30,> 10,> 30,> 30,> 10,> 10,CN(C)CCC(c1ccc(Cl)cc1)c1ccccn1 (stereo not given) [CHLORPHENIRAMINE],–,> 10

# From ChEMBL document CHEMBL5291721, “A preclinical secondary pharmacology resource illuminates target-adverse drug reaction associations of marketed drugs” (Nat Commun, 2023)
